The results in this text go back to ChEMBL document CHEMBL3745649, “Structure-activity relationship study of anticancer thymidine-quinoxaline conjugates under the low radiance of long wavelength ultraviolet light for photodynamic therapy” (Eur J Med Chem, 2016).

A short description of series [1]: Photocytotoxicity against human PANC1 cells assessed as cell viability preincubated for 5 hrs with cells followed by UVA-1 irradiation at 3.0 mW/cm'2 for 20 mins measured after 48 hrs by CCK8 assay. It is filed as functional, cell-based. Conditions: PANC-1, light or radiation study.
Series [2] can be described thus: Photocytotoxicity against human Bel7402 cells assessed as cell viability preincubated for 5 hrs with cells followed by UVA-1 irradiation at 3.0 mW/cm'2 for 20 mins measured after 48 hrs by CCK8 assay. It counts as functional, cell-based. Conditions: Bel-7402, light or radiation study.
Series [3] in a line: Photocytotoxicity against human PANC1 cells assessed as cell viability preincubated for 5 hrs followed by UVA-1 irradiation at 0.85 mW/cm'2 for 20 mins measured after 48 hrs by CCK8 assay. It counts as functional, cell-based. Conditions: PANC-1, light or radiation study.
A short description of series [4]: Dark toxicity against human PANC1 cells assessed as cell viability after 53 hrs by CCK8 assay in absence of UVA-1 irradiation. It is filed as cell-based, PANC-1.
The nature of series [5]: Dark toxicity against human Bel7402 cells assessed as cell viability after 53 hrs by CCK8 assay in absence of UVA-1 irradiation. It counts as cell-based, Bel-7402.
A short description of series [6]: Photocytotoxicity against human Bel7402 cells assessed as cell viability preincubated for 5 hrs followed by UVA-1 irradiation at 0.85 mW/cm'2 for 20 mins measured after 48 hrs by CCK8 assay. It is filed as functional, cell-based. The settings on record: Bel-7402, light or radiation study.
A short description of series [7]: Cytotoxicity against human Bel7402 cells assessed as viable cells at 50 uM. It counts as functional. Conditions: Bel-7402, read-out: Activity.
Series [8] is described as follows: Cytotoxicity against human PANC1 cells assessed as viable cells at 50 uM. It is filed as functional. The settings on record: PANC-1, read-out: Activity.
For another series, the system named is MCF7. The series can be described thus: Cytotoxicity against human MCF7 cells assessed as cell viability after 72 hrs by MTT assay. It is filed as functional, cell-based. The settings on record: MCF7, 72 h.
The test system of series [9] is PANC-1. The series is described as follows: Photocytotoxicity against human PANC1 cells assessed as production of reactive oxygen stress at 5 uM preincubated for 5 hrs followed by UVA-1 irradiation at 0.85 mW/cm'2 for 20 mins measured for 10 mins by DCFH-DA based fluorescence microscopic analysis. It is filed as functional, cell-based.
The test system of another series is C6. The series is described as follows: Cytotoxicity against rat C6 cells assessed as cell viability after 72 hrs by MTT assay. It is filed as functional, cell-based. Conditions: C6, 72 h.
Series [10] concerns PANC-1. The series can be described thus: Antioxidant activity in human PANC1 cells assessed as reduction of H2O2-induced reactive oxygen stress level at 5 uM after 15 mins by DCFH-DA based fluorescence assay. It counts as functional, cell-based.
The test system of a further series is HepG2. The series is described as follows: Cytotoxicity against human HepG2 cells assessed as cell viability after 72 hrs by MTT assay. It is filed as functional, cell-based. Conditions: HepG2, 72 h.
A further series relates to Bel-7402. The series can be described thus: Photocytotoxicity against human Bel7402 cells assessed as production of reactive oxygen stress at 5 uM preincubated for 5 hrs followed by UVA-1 irradiation at 0.85 mW/cm'2 for 20 mins measured for 10 mins by DCFH-DA based fluorescence microscopic analysis. It counts as functional, cell-based.
The nature of series [11]: Cytotoxicity against human Hep3B cells assessed as cell viability after 72 hrs by MTT assay. It counts as functional, cell-based, Hep 3B2.
The subject of the next series is H22. The series is described as follows: Cytotoxicity against […] cells assessed as cell viability after 72 hrs by MTT assay. It counts as functional, cell-based. Conditions: Mus musculus, H22, 72 h.
The test system of series [12] is PANC-1. The series can be described thus: Antioxidant activity in human PANC1 cells assessed as reduction of reactive oxygen stress level at 5 uM after 15 mins by DCFH-DA based fluorescence assay in absence of H2O2. It counts as functional, cell-based.

Active and inactive are the calls of the source. The rule behind the calls is not given here.

Consider `CCN(CC)CCNC(=O)c1c(C)[nH]c(/C=C2\C(=O)Nc3ccc(F)cc32)c1C` [SUNITINIB], for which the half-maximal effective concentration (EC50) was determined as 13 µM in series [1] and 11 µM in [2].

For the compound `Cc1cn([C@H]2C[C@H](n3cc(CNC(=O)CCCCCOc4ccc5c(c4)C(=O)C(=O)[C@@H]4C(C)(C)CCC[C@]54C)nn3)[C@@H](CO)O2)c(=O)[nH]c1=O`, the EC50 in series [3] and in [6] was over 20 µM throughout. The EC50 at 53 h in series [4] and in series [5] was over 50 µM each time.

Take `Cc1cn([C@H]2C[C@H](n3cc(CNC(=O)CCCCCOc4ccc5c(c4)-c4nc6ccc(F)cc6nc4[C@@H]4C(C)(C)CCC[C@]54C)nn3)[C@@H](CO)O2)c(=O)[nH]c1=O`: the EC50 was determined as 13.5 µM in series [3] and 7.4 µM in series [6]. The figures for the EC50 at 53 h in series [4] and in [5] were at least 50 µM and 10 µM, respectively.

Take `Cc1cn([C@H]2C[C@H](n3cc(CNC(=O)CCCCCOc4ccc5c(c4)-c4nc6ccccc6nc4[C@H]4C(C)(C)CCC[C@]54C)nn3)[C@@H](CO)O2)c(=O)[nH]c1=O`: the EC50 in series [3] amounted to 11.3 µM; in [6], 5.1 µM. Besides, the EC50 at 53 h in series [4] was over 50 µM; in series [5] it was over 20 µM.

With `Cc1cn([C@H]2C[C@H](n3cc(CNC(=O)CCCOc4ccc5c(c4)-c4nc6ccccc6nc4[C@@H]4C(C)(C)CCC[C@]54C)nn3)[C@@H](CO)O2)c(=O)[nH]c1=O`, the half-maximal effective concentration (EC50) in series [3] is over 10 µM; in series [6], 10.9 µM. In addition, the EC50 at 53 h in [4] is 20 µM; in [5] it was over 20 µM.

On to `Cc1cn([C@H]2C[C@H](n3cc(CCCC(=O)Nc4cc5ccc6cccc7ccc(c4)c5c67)nn3)[C@@H](CO)O2)c(=O)[nH]c1=O`, for which the EC50 in series [3] and in series [6] was over 20 µM in each case. The EC50 at 53 h in series [4] and in series [5] was over 50 µM each time.

As for `Nc1ccn([C@@H]2O[C@H](CO)[C@@H](O)C2(F)F)c(=O)n1` [GEMCITABINE], the viability at 50 µM in series [7] and in [8] was under 20% each time.

With `Cc1cn([C@H]2C[C@H](n3cc(CNC(=O)CCCCCOc4ccc5c(c4)-c4nc6ccccc6nc4[C@@H]4C(C)(C)CCC[C@]54C)nn3)[C@@H](CO)O2)c(=O)[nH]c1=O`, the EC50 in the series with MCF7 worked out at 6 µM; in [3], 9.8 µM; in series [6], 4.2 µM; in the series on C6 it was 6 µM; with HepG2 it was 6 µM; in series [11] it was 6 µM. Besides, in the series with H22, the EC50 stood at 6 µM. Further, the EC50 at 53 h in series [4] was at least 50 µM; in series [5] it was 10 µM. Besides, the outcome with PANC-1 [9], in the series on PANC-1 [10] and in the series with Bel-7402 was Active.

In the case of `Cc1cn([C@H]2C[C@H](n3cc(CNC(=O)CCCCCCCOc4ccc5c(c4)-c4nc6ccccc6nc4[C@@H]4C(C)(C)CCC[C@]54C)nn3)[C@@H](CO)O2)c(=O)[nH]c1=O`, the EC50 in series [3] turned out to be 5.7 µM; in [6] it was 4 µM. In addition, the EC50 at 53 h in [4] was at least 50 µM; in series [5] it was 10 µM.

As to `[N-]=[N+]=N[C@@H]1O[C@H](CO)[C@H](O)[C@H](O)[C@H]1O`, in the series with PANC-1 [10], the result was Active.

As to `Cc1cn([C@H]2C[C@H](n3cc(CNC(=O)CCCCCCCOc4ccc5c(c4)-c4nc6ccccc6nc4[C@H]4C(C)(C)CCC[C@]54C)nn3)[C@@H](CO)O2)c(=O)[nH]c1=O`, the EC50 is 8.1 µM in series [3] and 5.6 µM in series [6]. Further, the EC50 at 53 h in series [4] is over 50 µM; in series [5], 10 µM.

For the compound `Cc1cn([C@H]2C[C@H](n3cc(CNC(=O)COc4ccc5c(c4)-c4nc6ccccc6nc4[C@@H]4C(C)(C)CCC[C@]54C)nn3)[C@@H](CO)O2)c(=O)[nH]c1=O`, the EC50 in series [3] is over 20 µM; in series [6] it was 12.5 µM. The EC50 at 53 h in series [4] is 20 µM; in series [5] it was over 20 µM.

Turning to `Cc1cn([C@H]2C[C@H](n3cc(CNC(=O)CCCCCOc4ccc5c(c4)-c4nc6cc(Br)c(Br)cc6nc4[C@@H]4C(C)(C)CCC[C@]54C)nn3)[C@@H](CO)O2)c(=O)[nH]c1=O`, the EC50 in series [3] stood at 5.8 µM; in series [6], 2.1 µM. For the same compound, the EC50 at 53 h in [4] was at least 50 µM; in series [5], over 20 µM.

Regarding `CC1(C)CCC[C@]2(C)c3ccc(OCCCCCC(=O)NCc4cn([C@@H]5O[C@H](CO)[C@H](O)[C@H](O)[C@H]5O)nn4)cc3-c3nc4ccccc4nc3[C@H]12`, the EC50 in series [3] and in series [6] was over 20 µM each time. In addition, the EC50 at 53 h in [4] and in series [5] was over 50 µM throughout. Besides, the result in the series with PANC-1 [9] and in the series with Bel-7402 was inactive. The result with PANC-1 [10] and in the series with PANC-1 [12] was Active.

As to `Cc1cn([C@H]2C[C@H](n3cc(CNC(=O)CCCCCOc4ccc5c(c4)-c4nc6cc(F)ccc6nc4[C@@H]4C(C)(C)CCC[C@]54C)nn3)[C@@H](CO)O2)c(=O)[nH]c1=O`, the EC50 is 7 µM in series [3] and 4 µM in series [6]. Further, the EC50 at 53 h stood at 20 µM in series [4] and 10 µM in series [5].
